Assay [1] deals with LRRK2 Ser935 phosphorylation in SH-SY5Y cells over-expressing recombinant full length LRRK2 (Homo sapiens (Human), UniProt Q5S007). The assay can be described thus: Recombinant cellular LRRK2 AlphaScreen assay. Type of assay: cell-based. Particulars: 60 minutes, read-out: Recombinant cellular LRRK2 alphaScreen assay (pIC50) (converted). The text has this:
To determine the activity of compounds against LRRK2 kinase activity in cells, the observed LRRK2 kinase-dependent modulation of LRRK2 Ser 935 phosphorylation (Dzamko et al., 2010, Biochem. J. 430: 405-413) was utilized to develop a quantitative 384 well plate-based immunoassay of LRRK2 Ser935 phosphorylation in the human neuroblastoma cell line SH-SY5Y, engineered to over-express recombinant full length LRRK2 protein.
A BacMam virus expressing full length recombinant LRRK2 was purchased from Invitrogen and amplified by inoculation of SF-9 cells at MOI 0.3 for 4-5 days in Sf-900 III SFM medium supplemented with 3% fetal bovine serum. Infected cell cultures were then centrifuged at 2000 g for 20 minutes, viral supernatant titer determined by anti-gp64 plaque assay and stored at 4° C.
Affinity-purified anti-phospho LRRK2 Ser935 sheep polyclonal antibody (Dzamko et al., 2010, Biochem. J. 430: 405-413) was biotinylated by standard methods (PerkinElmer). Anti-LRRK2 rabbit polyclonal antibody was purchased from Novus Biologicals. AlphaScreen Protein A IgG Kit (including acceptor and donor beads) was purchased from Perkin Elmer.
SH-SY5Y cells were grown in DMEM/F12 medium with 10% dialysed fetal bovine serum and harvested by treatment with 0.5% trypsin-EDTA for 5 minutes at 37° C. followed by centrifugation at 1000 rpm for 4 minutes. The cell pellet was resuspended in Opti-MEM reduced serum media (Invitrogen) at 200,000 cells/ml and mixed with the BacMam LRRK2 virus at M01=50. 50 μl cell solutions were then dispensed to each well of a 384-well plate and incubated at 37° C., 5% CO2 for 24 hours.
Serial dilutions of test compounds were prepared in Opti-MEM reduced serum media (Invitrogen) and 5.6 ul transferred from compound plate to cell assay plate to achieve a top final assay concentration of 10 uM. DMSO was used in certain wells as controls. Cells were incubated at 37° C., 5% CO2 for 60 minutes. The medium was then removed and cells lysed by addition of 20 ul cell lysis buffer (Cell Signaling Technology) and incubation at 4° C. for 20 minutes. 10 ul of antibody/acceptor bead mix [( 1/1000 biotinylated-pS935 LRRK2 antibody, 1/1000 total-LRRK2 antibody, 1/100 Acceptor beads in AlphaScreen detection buffer (25 mM Hepes (pH 7.4), 0.5% Triton X-100, 1 mg/ml Dextran 500 and 0.1% BSA)] was then added to each well and plates incubated for 2 hours at ambient temperature in the dark. 10 μl of donor beads solution (1/33.3 donor beads in AlphaScreen detection buffer) was then added to each well. Following incubation for a further 2 hours at ambient temperature in the dark, plates were read on an EnVision™ plate reader at emission 520-620 nm with excitation 680 nm. Dose response curve data was based on sigmoidal dose-response model.

For assay [2], the target named is Truncated G2019 human LRRK2 (1326-2527) (Homo sapiens (Human), UniProt Q5S007). The assay can be described thus: Truncated G2019 human LRRK2 (1326-2527) inhibition mass spectrometry assay. Format: biochemical. Conditions: 6HIS-Tev-LRRK2 (1326-2527), 25 uM LRRKtide, 20 uM ATP; for IC50: read-out: Truncated G2019 human LRRK2 inhibition mass spectrometry assay (pIC50) (converted). The source says:
1) Truncated G2019 Human LRRK2 (1326-2527) Inhibition Mass Spectrometry Assay
A LRRK2 cDNA encoding residues 1326-2527 was received from Dundee University (described in M. Jaleel et al., 2007, Biochem J, 405: 407-417). This gene fragment was subcloned into pFB-HTb (Invitrogen) using BamHI and NotI restriction sites. The LRRK2 plasmid was recombined into the baculovirus genome according to the BAC-to-BAC protocol described by Invitrogen. Transfection into Spodoptera frugiperda (Sf9) insect cells was performed using Cellfectin (Invitrogen), according to the manufacturer's protocol to generate P1 and P2 baculovirus stocks.
Sf9 cells were grown in HyClone SFX (Thermo Scientific) growth media at 27° C., 80 rpm in shake flask until of a sufficient volume to inoculate a bioreactor. The cells were grown in a 20 litre working volume Wave bioreactor (GE Healthcare) at 27° C., 50% dissolved oxygen and an agitation rate 22 rocks per minute, 10 degree rock angle, 200 ml/min air with a cell concentration of approximately 6xe6 cells/ml. The cells were infected with P2 Baculovirus at a multiplicity of infection (MOI) of 3. The cultivation was continued for a 48 hour expression phase. The infected cells were removed from the growth media by centrifugation at 2500 g using a Sorvall RC 3C Plus centrifuge at 2500 g for 20 minutes. The cell pellet was immediately frozen and subsequently supplied for purification.
A 260 g pellet was allowed to thaw in a water bath at 27° C. with 800 ml lysis buffer/buffer A (50 mm Tris-HCl pH 8.5, 300 mM NaCl, 1 mm DTT, 10% glycerol, 1 ml/L Calbiochem complete protease inhibitor cocktail and benzonase (50 ul/800 ml)) before being dounce homogenised on ice using 20 strokes per 100 ml. The suspension was packed in ice and sonicated at 50% amplitude for 3 min 10 sec on/off using a ¾″ probe. The suspension was then centrifuged at 100,000 g for 90 min, at 4° C.
The lysate (700 ml) was decanted from the insoluble pellet and contacted for 3h at 4° C. with 10 ml His bind Ni NTA resin by end over end mixing. The resin was recovered by centrifugation, 3000 g, 5 min at 4° C., and packed in an XK16 column. The column was then washed with 10 column volumes buffer A, 10 column volumes buffer B (buffer A+1M NaCl) and 10 column volumes buffer C (buffer A+20 mM imidazole). The column was then eluted with 15 column volumes buffer D (buffer A+300 mM imidazole) collecting 2 ml fractions. All washes and elution were conducted at 4 ml/min.
Fractions identified by SDS-PAGE as containing protein of interest were pooled and loaded directly onto a 320 ml SEC Superdex 200 pg column that was pre-equilibrated with buffer E (50 mM Tris-HCl pH 8.5, 300 mM NaCl, 10% glycerol, 1 mM DTT). The column was loaded and eluted with 1.2 column volumes buffer E at 2 ml/min collecting 2 ml fractions. Fractions identified by SDS-PAGE as containing protein of interest were tested for activity.
Production of LRRKtide for LRRK2 Inhibition Mass Spectrometry Assay
The ‘LRRKtide’ peptide (SEQ ID NO. 10) was synthesized as follows. The protected peptide was assembled on a solid-phase synthesiser using preloaded Wang resin and utilising standard Fmoc synthesis protocols. The crude peptide was obtained after cleavage from the resin with a mixture of trifluoroacetic acid (TFA), triisopropylsilane and water (95:2.5:2.5) for 3 hours at room temperature and was then purified using a C18 reverse-phase column utilising a 0.1% TFA-buffered water/acetonitrile gradient. The resulting fractions were analysed and fractions which were >95% pure by analytical HPLC and giving the correct molecular weight (mw) (by MALDiTOF mass spectroscopy) were pooled and freeze dried. The final material was analysed by HPLC and MALDiTOF mass spectroscopy.
Truncated G2019 Human LRRK2 (1326-2527) Inhibition Mass Spectrometry Assay […]

Counter-ions that a name gives are not always drawn. Bounds are passed on as bounds.

Chain of LRRK2 Ser935 phosphorylation in SH-SY5Y cells over-expressing recombinant full length LRRK2 (Q5S007 whole entry): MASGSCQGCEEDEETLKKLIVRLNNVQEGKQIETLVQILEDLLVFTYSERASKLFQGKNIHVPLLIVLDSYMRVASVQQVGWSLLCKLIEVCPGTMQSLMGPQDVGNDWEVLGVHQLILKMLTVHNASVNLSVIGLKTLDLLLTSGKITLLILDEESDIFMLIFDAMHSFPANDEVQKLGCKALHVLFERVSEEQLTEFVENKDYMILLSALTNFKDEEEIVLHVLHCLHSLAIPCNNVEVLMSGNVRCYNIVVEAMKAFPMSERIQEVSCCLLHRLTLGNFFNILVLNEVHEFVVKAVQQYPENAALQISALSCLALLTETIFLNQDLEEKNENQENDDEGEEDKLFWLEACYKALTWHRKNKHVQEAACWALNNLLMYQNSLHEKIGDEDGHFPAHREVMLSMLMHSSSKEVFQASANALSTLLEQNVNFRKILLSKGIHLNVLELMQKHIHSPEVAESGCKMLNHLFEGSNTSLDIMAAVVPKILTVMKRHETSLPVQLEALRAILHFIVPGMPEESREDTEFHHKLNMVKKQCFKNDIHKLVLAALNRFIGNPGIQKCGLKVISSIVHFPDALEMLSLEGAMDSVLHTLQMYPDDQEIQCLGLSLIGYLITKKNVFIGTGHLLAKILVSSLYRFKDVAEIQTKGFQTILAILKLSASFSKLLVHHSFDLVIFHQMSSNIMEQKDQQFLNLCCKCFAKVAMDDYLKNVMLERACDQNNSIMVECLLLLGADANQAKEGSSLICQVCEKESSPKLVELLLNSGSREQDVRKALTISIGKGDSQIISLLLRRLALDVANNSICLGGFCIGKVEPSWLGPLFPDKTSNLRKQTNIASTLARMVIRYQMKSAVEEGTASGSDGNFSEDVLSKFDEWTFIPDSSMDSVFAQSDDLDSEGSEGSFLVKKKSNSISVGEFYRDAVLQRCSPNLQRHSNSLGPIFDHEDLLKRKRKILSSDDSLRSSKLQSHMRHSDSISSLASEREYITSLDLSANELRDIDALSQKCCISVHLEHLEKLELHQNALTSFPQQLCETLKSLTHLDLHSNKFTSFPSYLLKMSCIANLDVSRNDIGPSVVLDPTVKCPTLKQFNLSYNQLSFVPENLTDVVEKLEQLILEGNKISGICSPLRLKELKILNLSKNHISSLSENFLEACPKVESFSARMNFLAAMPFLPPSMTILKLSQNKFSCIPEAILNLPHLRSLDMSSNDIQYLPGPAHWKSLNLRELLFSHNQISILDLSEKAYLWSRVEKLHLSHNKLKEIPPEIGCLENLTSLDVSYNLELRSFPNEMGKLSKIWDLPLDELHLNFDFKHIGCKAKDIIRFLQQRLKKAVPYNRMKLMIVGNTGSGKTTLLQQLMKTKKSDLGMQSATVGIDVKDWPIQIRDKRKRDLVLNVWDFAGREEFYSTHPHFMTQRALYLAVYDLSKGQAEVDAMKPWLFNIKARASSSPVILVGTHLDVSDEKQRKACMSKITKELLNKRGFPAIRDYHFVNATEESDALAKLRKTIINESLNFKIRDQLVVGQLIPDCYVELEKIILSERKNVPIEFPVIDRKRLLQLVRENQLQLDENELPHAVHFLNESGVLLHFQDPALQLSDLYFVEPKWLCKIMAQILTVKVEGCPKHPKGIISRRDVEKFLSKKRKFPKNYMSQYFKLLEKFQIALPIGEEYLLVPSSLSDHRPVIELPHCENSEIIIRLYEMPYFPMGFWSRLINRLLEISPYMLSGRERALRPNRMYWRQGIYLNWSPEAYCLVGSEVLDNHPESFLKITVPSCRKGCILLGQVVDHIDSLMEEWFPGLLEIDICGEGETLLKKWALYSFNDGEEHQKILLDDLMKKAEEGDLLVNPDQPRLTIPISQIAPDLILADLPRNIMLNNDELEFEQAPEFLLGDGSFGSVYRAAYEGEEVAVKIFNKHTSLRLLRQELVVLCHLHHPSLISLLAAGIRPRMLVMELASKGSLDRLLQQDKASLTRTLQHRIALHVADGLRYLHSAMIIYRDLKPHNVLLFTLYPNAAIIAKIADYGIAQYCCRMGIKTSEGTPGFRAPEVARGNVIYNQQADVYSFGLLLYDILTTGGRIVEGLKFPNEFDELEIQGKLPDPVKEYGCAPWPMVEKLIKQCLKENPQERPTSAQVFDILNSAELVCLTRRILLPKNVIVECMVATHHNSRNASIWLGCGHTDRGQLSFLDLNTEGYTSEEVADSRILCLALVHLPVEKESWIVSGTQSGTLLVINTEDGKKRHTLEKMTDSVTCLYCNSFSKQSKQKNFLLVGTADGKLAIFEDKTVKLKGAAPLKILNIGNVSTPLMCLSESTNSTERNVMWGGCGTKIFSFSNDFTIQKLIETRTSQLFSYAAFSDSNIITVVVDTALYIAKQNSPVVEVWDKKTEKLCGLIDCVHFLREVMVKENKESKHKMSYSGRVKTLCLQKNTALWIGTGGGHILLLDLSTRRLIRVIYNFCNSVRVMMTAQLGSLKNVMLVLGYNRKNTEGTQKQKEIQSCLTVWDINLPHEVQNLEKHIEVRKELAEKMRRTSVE
Chain of Truncated G2019 human LRRK2 (1326-2527) (Q5S007 1326-2527): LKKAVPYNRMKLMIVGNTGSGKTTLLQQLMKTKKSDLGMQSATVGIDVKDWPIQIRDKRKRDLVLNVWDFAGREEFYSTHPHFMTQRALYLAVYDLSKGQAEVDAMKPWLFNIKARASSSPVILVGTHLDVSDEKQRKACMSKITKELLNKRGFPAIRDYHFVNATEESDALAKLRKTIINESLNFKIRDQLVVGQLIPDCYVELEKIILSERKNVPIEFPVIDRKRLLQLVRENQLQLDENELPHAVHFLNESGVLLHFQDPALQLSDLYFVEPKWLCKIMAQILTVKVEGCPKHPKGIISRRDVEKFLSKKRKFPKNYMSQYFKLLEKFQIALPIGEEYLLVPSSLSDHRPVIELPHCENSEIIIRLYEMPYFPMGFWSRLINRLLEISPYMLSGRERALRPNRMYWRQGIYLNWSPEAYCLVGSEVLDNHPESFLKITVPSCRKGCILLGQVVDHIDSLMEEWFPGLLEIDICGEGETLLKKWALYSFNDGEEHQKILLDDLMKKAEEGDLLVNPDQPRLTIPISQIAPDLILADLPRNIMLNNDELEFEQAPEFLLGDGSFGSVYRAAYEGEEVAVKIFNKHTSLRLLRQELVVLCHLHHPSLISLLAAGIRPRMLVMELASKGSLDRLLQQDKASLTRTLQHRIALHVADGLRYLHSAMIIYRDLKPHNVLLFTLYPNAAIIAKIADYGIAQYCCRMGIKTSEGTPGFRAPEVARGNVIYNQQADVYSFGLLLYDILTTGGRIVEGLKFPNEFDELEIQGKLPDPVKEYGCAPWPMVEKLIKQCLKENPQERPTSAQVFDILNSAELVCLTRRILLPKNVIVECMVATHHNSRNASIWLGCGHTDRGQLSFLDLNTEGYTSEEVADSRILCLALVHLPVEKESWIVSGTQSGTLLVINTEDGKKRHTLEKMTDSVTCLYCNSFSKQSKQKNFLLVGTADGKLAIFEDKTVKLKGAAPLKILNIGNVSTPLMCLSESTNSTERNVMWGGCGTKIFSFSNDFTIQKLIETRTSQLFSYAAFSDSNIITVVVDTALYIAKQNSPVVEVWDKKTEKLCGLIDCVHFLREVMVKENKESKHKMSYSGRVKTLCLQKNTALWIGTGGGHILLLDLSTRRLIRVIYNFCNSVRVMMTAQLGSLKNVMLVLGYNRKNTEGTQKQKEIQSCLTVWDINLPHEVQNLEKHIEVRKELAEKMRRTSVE

Take `COc1nc(N2CCOCC2)cc(-n2ncc3cc(C)c(C4CCN(C)CC4(F)F)cc32)n1` (single isomer, unassigned) [Example E4, 4-(6-(6-(3,3-Difluoro-1-methylpiperidin-4-yl)-5-methyl-1H-indazol-1-yl)-2-methoxypyrimidin-4-yl)morpholine]: the IC50 is 25.1 nM in assay [1] and 7.94 nM in assay [2]. The like results for `CNC(=O)[C@H]1CN(c2cc(-n3ncc4cc(C)c(C5CCN(C)CC5(F)F)cc43)nc(OC)n2)CCO1` (single isomer, unassigned) [Example E18] were, in that order, 12.6 nM and 12.6 nM. On to `COc1nc(N2CCOCC2)cc(-n2ncc3cc(C)c(C4CCN(C5COC5)CC4(F)F)cc32)n1` (single isomer, unassigned) [Example E22, 4-(6-(6-(3,3-Difluoro-1-(oxetan-3-yl)piperidin-4-yl)-5-methyl-1H-indazol-1-yl)-2-methoxypyrimidin-4-yl)morpholine], for which the IC50 is 12.6 nM in assay [1] and 7.94 nM in assay [2]. As for `COc1nc(N2CC(O)C2)cc(-n2ncc3cc(C)c(C4CCN(C)CC4F)cc32)n1` (single isomer, unassigned) [Example E38, (cis)-1-(6-(6-(3-Fluoro-1-methylpiperidin-4-yl)-5-methyl-1H-indazol-1-yl)-2-methoxypyrimidin-4-yl)azetidin-3-ol], the IC50 in assay [1] was 31.6 nM. In assay [2], the “Truncated G2019 human LRRK2 inhibition mass spectrometry assay (pIC50)” value was 8. Take `COc1nc(N2CC(O)C2)cc(-n2ncc3cc(C)c(C4CCN(C)CC4F)cc32)n1` (single isomer, unassigned) [Example E39, (cis)-1-(6-(6-(3-Fluoro-1-methylpiperidin-4-yl)-5-methyl-1H-indazol-1-yl)-2-methoxypyrimidin-4-yl)azetidin-3-ol]: the IC50 in assay [1] was 5.01 nM; in assay [2] it was 10 nM.

Take `Cc1nc(N2CC(O)C2)cc(-n2ncc3cc(C)c(C4CCN(C)CC4F)cc32)n1` (single isomer, unassigned) [Example E40, (cis)-1-(6-(6-(3-Fluoro-1-methylpiperidin-4-yl)-5-methyl-1H-indazol-1-yl)-2-methylpyrimidin-4-yl)azetidin-3-ol]: the values for the IC50 in assay [1] and in assay [2] were 50.1 nM and 12.6 nM, respectively. Take `Cc1nc(N2CC(O)C2)cc(-n2ncc3cc(C)c(C4CCN(C)CC4F)cc32)n1` (single isomer, unassigned) [Example E41, (cis)-1-(6-(6-(3-Fluoro-1-methylpiperidin-4-yl)-5-methyl-1H-indazol-1-yl)-2-methylpyrimidin-4-yl)azetidin-3-ol]: the IC50 in assay [1] is 126 nM. Besides, the “Truncated G2019 human LRRK2 inhibition mass spectrometry assay (pIC50)” value in assay [2] amounted to 7.9. Consider `Cc1cc2cnn(-c3cc(N4CC(O)C4)nc(OC(F)F)n3)c2cc1C1CCN(C)CC1F` (single isomer, unassigned) [Example E48, (cis)-1-(2-(Difluoromethoxy)-6-(6-(3-fluoro-1-methylpiperidin-4-yl)-5-methyl-1H-indazol-1-yl)pyrimidin-4-yl)azetidin-3-ol], for which the IC50 in assay [2] is at most 10000 nM.

On to `COc1nc(N2CCOCC2)cc(-n2ncc3cc(C)c([C@H]4CCNC[C@H]4F)cc32)n1` (single isomer, unassigned) [Example E62, (cis)-4-(6-(6-(3-Fluoropiperidin-4-yl)-5-methyl-1H-indazol-1-yl)-2-methoxypyrimidin-4-yl)morpholine hydrochloride], for which the IC50 in assay [1] is 50.1 nM; in assay [2], 7.94 nM. For `COc1nc(N2CC(C#N)C2)cc(-n2ncc3cc(C)c(C4CCNCC4(F)F)cc32)n1` (single isomer, unassigned) [Example E66, 1-(6-(6-(3,3-Difluoropiperidin-4-yl)-5-methyl-1H-indazol-1-yl)-2-methoxypyrimidin-4-yl)azetidine-3-carbonitrile] the same measures were 126 nM and 31.6 nM.

Take `Cc1nc(N2CC(O)C2)cc(-n2ncc3cc(C)c(C4CCCOC4)cc32)n1` (single isomer, unassigned) [Example E272, 1-(2-Methyl-6-(5-methyl-6-(tetrahydro-2H-pyran-3-yl)-1H-indazol-1-yl)pyrimidin-4-yl)azetidin-3-ol]: the IC50 in assay [1] was over 10000 nM.

For `Cc1nc(N2CC(O)C2)cc(-n2ncc3cc(C)c(C4CCOCC4)cc32)n1` [Example E89, 1-(2-Methyl-6-(5-methyl-6-(tetrahydro-2H-pyran-4-yl)-1H-indazol-1-yl)pyrimidin-4-yl)azetidin-3-ol], the IC50 in assay [1] was at most 100 nM.

On to `COc1nc(N2CC(OCCO)C2)cc(-n2ncc3cc(C)c(C4CCOCC4)cc32)n1` [Example E237, 2-((1-(2-Methoxy-6-(5-methyl-6-(tetrahydro-2H-pyran-4-yl)-1H-indazol-1-yl)pyrimidin-4-yl)azetidin-3-yl)oxy)ethanol], for which the IC50 in assay [1] was at most 100 nM. Same read-out and setting: for `Cc1nc(N2CC(O)C2)cc(-n2ncc3cc(Cl)c(N4CCC(O)CC4)cc32)n1` [Example E258, 1-(5-Chloro-1-(6-(3-hydroxyazetidin-1-yl)-2-methylpyrimidin-4-yl)-1H-indazol-6-yl)piperidin-4-ol] the value was at most 100 nM.

For the origin of these results see patent publication US10975081B2, “Substituted fused pyrazole compounds and their use as LRRK2 inhibitors” (GlaxoSmithKline Intellectual Property Development Limited, priority 2015, dated 2021).
